Data taken from ChEMBL document CHEMBL4346724, “Porphyrinoid photosensitizers mediated photodynamic inactivation against bacteria” (Eur J Med Chem, 2019).

Legend:
Pseudomonas aeruginosa [1] = test: Photodynamic antibacterial activity against Pseudomonas aeruginosa assessed as bacterial burden at 1 to 10 uM preincubated for 10 mins in dark condition followed by exposure of LED light at 66 to 266 J/cm2 relative to control; assay type: functional
Pseudomonas aeruginosa [2] = test: Photodynamic antibacterial activity against Pseudomonas aeruginosa assessed as reduction in bacterial burden at 225 uM in presence of light at 100 J/cm2; assay type: functional
Pseudomonas aeruginosa [3] = test: Photodynamic antibacterial activity against Pseudomonas aeruginosa assessed as bacterial killing at 2.5 mg/ml in presence of light at 100 J/cm2 relative to control; assay type: functional
Enterococcus faecalis [4] = test: Photodynamic antibacterial activity against Enterococcus faecalis assessed as reduction in bacterial burden at 10 uM after 15 mins in presence of light irradiation at 64.8 J/cm2; assay type: functional
Enterococcus faecalis [5] = test: Photodynamic antibacterial activity against Enterococcus faecalis assessed as reduction in bacterial burden at 5 uM after 15 mins in presence of light irradiation at 21.6 J/cm2; assay type: functional
Pseudomonas aeruginosa [6] = test: Photodynamic antibacterial activity against Pseudomonas aeruginosa assessed as reduction in biofilm formation at 5 mg/ml in presence of light at 100 J/cm2 relative to control; assay type: functional; design: scale not given: the % may be the effect or the level left
Pseudomonas aeruginosa [7] = test: Photodynamic antibacterial activity against Pseudomonas aeruginosa assessed as reduction in bacterial burden at 100 to 225 uM preincubated with bacteria followed by exposure of mercury vapor lamp light at 100 J/cm2 for 10 mins; assay type: functional
Enterococcus faecalis [8] = test: Photodynamic antibacterial activity against Enterococcus faecalis assessed as reduction in bacterial burden at 5 uM after 15 mins in presence of light irradiation at 64.8 J/cm2; assay type: functional
Pseudomonas aeruginosa [9] = test: Photodynamic antibacterial activity against Pseudomonas aeruginosa assessed as reduction in bacterial burden at 1 to 10 uM preincubated for 10 mins in dark condition followed by exposure of LED light at 66 to 266 J/cm2; assay type: functional
Enterococcus faecalis [10] = test: Photodynamic antibacterial activity against Enterococcus faecalis assessed as reduction in bacterial burden at 5 uM after 15 mins in presence of light irradiation at 14.4 J/cm2; assay type: functional
Pseudomonas aeruginosa [11] = test: Photodynamic antibacterial activity against Pseudomonas aeruginosa assessed as biofilm formation at 0.5 mg/ml in presence of light at 100 J/cm2 relative to control; assay type: functional
Pseudomonas aeruginosa [12] = test: Photodynamic antibacterial activity against Pseudomonas aeruginosa assessed as reduction in biofilm formation at 0.5 mg/ml in presence of light at 100 J/cm2; assay type: functional
Helicobacter pylori [13] = test: Photodynamic antibacterial activity against Helicobacter pylori infected in patient assessed as bacterial eradication at 20 mg/lg, po after 4 hrs in presence of white light relative to control; assay type: functional
Helicobacter pylori [14] = test: Photodynamic antibacterial activity against Helicobacter pylori infected in patient assessed as bacterial eradication at 20 mg/lg, po after 4 hrs in presence of blue light relative to control; assay type: functional
Saccharomyces cerevisiae = test: Photodynamic fungal activity against Saccharomyces cerevisiae assessed as reduction in fungal burden at 100 nM; assay type: functional
Escherichia coli [15] = test: Photodynamic antibacterial activity against Escherichia coli assessed as reduction in bacterial burden at 0.5 to 1 uM after 15 mins in presence of light irradiation at 1004 J/cm2; assay type: functional
Escherichia coli [16] = test: Photodynamic antibacterial activity against Escherichia coli ATCC 25922 assessed as reduction in bacterial burden after 24 hrs in presence of diode laser at 6 J/cm2; assay type: functional
Enterococcus faecalis [17] = test: Photodynamic antibacterial activity against Enterococcus faecalis assessed as reduction in bacterial burden at 30 uM in presence of light irradiation at 100 J/cm2; assay type: functional
Enterococcus faecalis [18] = test: Dark toxicity against Enterococcus faecalis assessed as reduction in bacterial burden; assay type: organism-based; conditions: in vivo
Enterococcus faecalis [19] = test: Photodynamic antibacterial activity against Enterococcus faecalis assessed as reduction in bacterial burden at 10 uM in presence of light irradiation at 100 J/cm2; assay type: functional
Enterococcus faecalis [20] = test: Photodynamic antibacterial activity against Enterococcus faecalis assessed as reduction in bacterial burden in presence of light irradiation; assay type: functional, organism-based
Escherichia coli [21] = test: Photodynamic antibacterial activity against Escherichia coli assessed as reduction in bacterial burden at 5 uM after 15 mins in presence of light irradiation at 64.8 J/cm2; assay type: functional, organism-based
Staphylococcus aureus [22] = test: Photodynamic antibacterial activity against Staphylococcus aureus assessed as reduction in biofilm activity at 2.5 uM incubated for 10 mins in presence of tungsten halogen lamp light exposure at 22.5 to 180 J/cm2; assay type: functional
Pseudomonas aeruginosa [23] = test: Photodynamic antibacterial activity against Pseudomonas aeruginosa assessed as reduction in biofilm formation at 20 uM incubated for 10 mins in presence of tungsten halogen lamp light exposure at 22.5 to 180 J/cm2; assay type: functional
[24] = system: Capnocytophaga gingivalis; test: Photodynamic antibacterial activity against Capnocytophaga gingivalis assessed as reduction in bacterial viability at 10 uM in presence of light at 5.3 to 20.1 J/cm2 by propidium iodide staining-based fluorescence assay; assay type: functional
Fusobacterium nucleatum = test: Photodynamic antibacterial activity against Fusobacterium nucleatum assessed as reduction in bacterial viability at 10 uM in presence of light at 5.3 to 20.1 J/cm2 by propidium iodide staining-based fluorescence assay; assay type: functional
Porphyromonas gingivalis = test: Photodynamic antibacterial activity against Porphyromonas gingivalis assessed as reduction in bacterial viability at 10 uM in presence of light at 5.3 to 20.1 J/cm2 by propidium iodide staining-based fluorescence assay; assay type: functional
Eikenella corrodens = test: Photodynamic antibacterial activity against Eikenella corrodens assessed as reduction in bacterial viability at 10 uM in presence of light at 20.1 J/cm2 by propidium iodide staining-based fluorescence assay; assay type: functional
[25] = system: Aggregatibacter actinomycetemcomitans; test: Photodynamic antibacterial activity against Aggregatibacter actinomycetemcomitans assessed as reduction in bacterial viability at 10 uM in presence of light at 20.1 J/cm2 by propidium iodide staining-based fluorescence assay; assay type: functional
[26] = system: Aggregatibacter actinomycetemcomitans; test: Photodynamic antibacterial activity against Aggregatibacter actinomycetemcomitans assessed as reduction in bacterial viability at 10 uM in presence of light at 5.3 J/cm2 by propidium iodide staining-based fluorescence assay; assay type: functional
Staphylococcus aureus [27] = test: Photodynamic antibacterial activity against Staphylococcus aureus assessed as reduction in bacterial burden at 100 nM; assay type: functional
Staphylococcus aureus [28] = test: Photodynamic antibacterial activity against Staphylococcus aureus assessed as bacterial killing within 15 mins in presence of tungsten lamps light at 37 uEm'-2sec'-1 by spectrophotometic analysis relative to control; assay type: functional

SMILES: C[n+]1ccc(-c2c3nc(c(-c4cc[n+](C)cc4)c4ccc([nH]4)c(-c4cc[n+](C)cc4)c4nc(c(-c5cc[n+](C)cc5)c5ccc2[nH]5)C=C4)C=C3)cc1.[I-].[I-].[I-].[I-]
- Activity (Pseudomonas aeruginosa [1]): >80%
- log(activity) (Pseudomonas aeruginosa [2]): 1.2
- Activity (Pseudomonas aeruginosa [3]): >99%
- log(activity) (Enterococcus faecalis [4]): 5.07
- log(activity) (Enterococcus faecalis [5]): 7
- Activity (Pseudomonas aeruginosa [6]): >99%
- log(activity) (Pseudomonas aeruginosa [7]): 4.1
- log(activity) (Enterococcus faecalis [8]): 7.33
- log(activity) (Pseudomonas aeruginosa [9]): <1
- log(activity) (Enterococcus faecalis [10]): 7.35

SMILES: C[n+]1ccc(-c2c3nc(c(-c4cc[n+](C)cc4)c4ccc([nH]4)c(-c4cc[n+](C)cc4)c4nc(c(-c5cc[n+](C)cc5)c5ccc2[nH]5)C=C4)C=C3)cc1.Cc1ccc(S(=O)(=O)[O-])cc1.Cc1ccc(S(=O)(=O)[O-])cc1.Cc1ccc(S(=O)(=O)[O-])cc1.Cc1ccc(S(=O)(=O)[O-])cc1
- Activity (Pseudomonas aeruginosa [11]): 99.9%
- log(activity) (Pseudomonas aeruginosa [12]): 4

SMILES: NCC(=O)CCC(=O)O [AMINOLEVULINIC ACID]
- Activity (Helicobacter pylori [13]): 85%
- Activity (Helicobacter pylori [14]): 66%

SMILES: CC1(C)Cc2cc3[nH]c(cc4nc(cc5[nH]c(cc1n2)cc5CN(CCO)CCO)CC4(C)C)cc3CN(CCO)CCO
- log(activity) (Saccharomyces cerevisiae): >6

SMILES: C[n+]1ccc(-c2c3nc(c(-c4cc[n+](C)cc4)c4ccc([nH]4)c(-c4c(F)c(F)c(F)c(F)c4F)c4nc(c(-c5cc[n+](C)cc5)c5ccc2[nH]5)C=C4)C=C3)cc1.[I-].[I-].[I-]
- log(activity) (Escherichia coli [15]): 3

SMILES: C=Cc1c(C)c2cc3nc(c(C=O)c4[nH]c(cc5nc(cc1[nH]2)C(C)=C5C)c(C)c4C(=O)O)[C@@H](CCC(=O)O)[C@@H]3C
- log(activity) (Escherichia coli [16]): 0.17

SMILES: Oc1cccc(-c2c3nc(c(-c4cccc(O)c4)c4ccc([nH]4)c(-c4cccc(O)c4)c4nc(c(-c5cccc(O)c5)c5ccc2[nH]5)CC4)C=C3)c1 [TEMOPORFIN]
- log(activity) (Enterococcus faecalis [17]): 6.7
- log(activity) (Enterococcus faecalis [18]): 1.5
- log(activity) (Enterococcus faecalis [19]): 5.8

SMILES: C[n+]1ccc(-c2c3nc(c(-c4cc[n+](C)cc4)c4ccc([nH]4)c(-c4ccc(C(=O)O)cc4)c4nc(c(-c5ccc(C(=O)O)cc5)c5ccc2[nH]5)C=C4)C=C3)cc1
- log(activity) (Enterococcus faecalis [20]): 7.03
- log(activity) (Escherichia coli [21]): > 3

SMILES: CN(C)CCCOc1ccc(-c2c3nc(c(-c4ccc(OCCCN(C)C)cc4)c4ccc([nH]4)c(-c4ccc(OCCCN(C)C)cc4)c4nc(c(-c5ccc(OCCCN(C)C)cc5)c5ccc2[nH]5)C=C4)C=C3)cc1
- log(activity) (Staphylococcus aureus [22]): 8
- log(activity) (Pseudomonas aeruginosa [23]): 3

SMILES: CC[C@H](C)CCCCCCCCCCC(=O)OC[C@H]1O[C@@H](OC(=O)/C(C)=C/C=C/C(C)=C/C=C/C(C)=C/C=C/C=C(C)/C=C/C=C(\C)CCC=C(C)C)[C@H](O)[C@@H](O)[C@@H]1O
- log(activity) [24]: 6.7
- log(activity) (Fusobacterium nucleatum): 5.3
- log(activity) (Porphyromonas gingivalis): 4.9
- log(activity) (Eikenella corrodens): 3
- log(activity) [25]: -1
- log(activity) [26]: -0.2

SMILES: COC(=O)c1ccc(-c2c3nc(c(-c4cc[n+](C)cc4)c4ccc([nH]4)c(-c4cc[n+](C)cc4)c4nc(c(-c5cc[n+](C)cc5)c5ccc2[nH]5)C=C4)C=C3)cc1.[I-].[I-].[I-]
- log(activity) (Enterococcus faecalis [5]): 7

SMILES: CC1(C)Cc2cc3[nH]c(cc4nc(cc5[nH]c(cc1n2)cc5C(=O)NCC[N+](C)(C)C)CC4(C)C)cc3C(=O)NCC[N+](C)(C)C
- log(activity) (Staphylococcus aureus [27]): 5

SMILES: C[n+]1ccc(-c2c3nc(c(-c4ccc(C(=O)O)cc4)c4ccc([nH]4)c(-c4cc[n+](C)cc4)c4nc(c(-c5ccc(C(=O)O)cc5)c5ccc2[nH]5)C=C4)C=C3)cc1
- log(activity) (Enterococcus faecalis [20]): 0.88
- log(activity) (Escherichia coli [21]): > 3

SMILES: CC1=Cc2cc3[nH]c(cc4nc(cc5[nH]c(cc1n2)cc5C)C(C)=C4CCC(=O)O)c(CCC(=O)O)c3C
- Activity (Staphylococcus aureus [28]): 99.9%
